Assay: Case 3: conventional drugs approved for neuropathic pain
Format: in vivo, human
Conditions: failed back surgery syndrome; pregabalin follow-up 19 weeks

SMILES	NP response to conventional drug, Case 3
NCC1(CC(=O)O)CCCCC1 [gabapentin]	unsuccessfully treated
CC(C)C[C@H](CN)CC(=O)O [pregabalin]	responded

Reference: patent publication US12161715B2, “EGFR targeted therapy” (priority 2011, dated 2024)
